Reference: patent US20220356163A1, “SMALL MOLECULE INHIBITORS OF Id PROTEINS” (MEMORIAL SLOAN KETTERING CANCER CENTER, priority 2019, published 2022)
Entries after “also recorded” stand apart in the source; their conditions may differ. Read-outs that look alike come from different tables or passages of the source.

Key:
Id1 = biological target: T1, Id1 (Mus musculus, UniProt P20067); experiment: Circular dichroism (CD) of Id1; format: binding
T1 construct: GST (N, cleaved yes); made in house; host or cells: E. coli Rosetta 2(DE3)
T1 sequence (P20067 1-168): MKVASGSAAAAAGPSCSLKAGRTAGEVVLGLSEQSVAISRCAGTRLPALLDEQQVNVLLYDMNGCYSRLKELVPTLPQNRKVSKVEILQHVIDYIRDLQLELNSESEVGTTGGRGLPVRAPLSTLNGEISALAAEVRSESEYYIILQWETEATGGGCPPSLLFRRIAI
Experimental: Id protein purification. pGEV-PSP-mId1 and mId3 expression constructs were transformed into Rosetta 2(DE3) Competent Cells (Sigma Millipore) for protein expression. To produce recombinant GST-tagged protein, a 50 mL LB/Ampicillin (100 μg/m)+Chloramphenicol (25 μg/mL) culture was grown overnight at 37° C. Early the next day, the overnight culture was diluted 1:100 into 6 L LB/Ampicillin+Chloramphenicol and cultured at 37° C. for about four hours until OD600=0.7. Cultures were induced with 1 mM IPTG and incubated at 16° C. for 16-18 hours. Cells were harvested by centrifugation at 4000 rpm for 15 minutes at 4° C. and the pellet was resuspended in lysis buffer (50 mM Tris pH 8.0; 400 mM NaCl; 0.5 mM TCEP, Protease Inhibitor Cocktail) (25 mL/L of culture). To lyse the cells, Triton X-100 and lysozyme were added to 0.1% and 10 μg/mL respectively, incubated for 30 minutes on ice and sonicated. Lysates were spun at 17,000 rpm for 30 minutes at 4° C. and supernatants were filtered through a […] filter before incubation with glutathione sepharose for two hours at 4° C. The sepharose with bound protein was run through a polypropylene column and washed twice with 50 mL wash buffer (50 mM Tris pH 8.0; 400 mM NaCl) before protein was eluted with 10 mL 50 mM glutathione elution buffer, pH 8.0. Protein was subjected to buffer exchange with PD10 columns (Sigma) into 12 mL storage buffer (50 mM Tris HCl pH 8.0, 400 mM NaCl, 10 mM EDTA, 1 mM DTT, 10% Glycerol).
GST-tag was cleaved with PreScission Protease (0.1 μL of 0.3 μg/μL PreScission Protease cleaves 10 μg of GST-mId1 when incubated at 4° C. for four hours) and incubated with Glutathione Sepharose to separate out the cleaved GST-tag. The cleaved mId1 protein was further cleaned by incubation with GST antibodies (Abcam #ab9085-200 μL anti-GST rabbit polyclonal; ThermoFisher #MA4-004 anti-GST mouse monoclonal) before Coomassie gel analysis. Cleaved protein was concentrated to desired strength using Amicon 3000MCO Ultra-4 centrifugal columns (UFC800308).
Circular dichroism. […]

HCT116 cells = experiment: HCT116 MTT viability, cell cycle and Cyclin D1; format: cell-based; conditions: HCT116, 40 μM
Experimental: (§1) Immunoblotting. For immunoblotting, cells were collected by trypsinization, washed with PBS and lysed in homogenization buffer (0.3 M sucrose, 10 mM Tris (pH 8.0), 400 mM sodium chloride, 3 mM magnesium chloride, 0.5% NP40/IGEPAL, 100 μg/mL Aprotinin+Protease inhibitor cocktail (Roche #11 836 153 001). Proteins were separated by SDS-PAGE, transferred to a membrane (LI-COR), probed with primary antibodies overnight at 4° C., and probed with secondary antibodies (LI-COR) for 1-2 hours at room temperature. Proteins were visualized using the LI-COR Odyssey Infrared Imaging detection system. The following primary antibodies were used Id1, Id2, Id3, Id4 (195-14, 9-2-8, 17-3, 82-12, respectively, all from Biocheck), Cyclin D1 (2978, Cell Signaling), Actin (A2066, Sigma), Tubulin (T4026, Sigma). Western blot quantification was carried out using channel 700 and channel 800 intensity data from Odyssey application software version 3.0.30 (LI-COR), subtracting blank values and normalizing to Tubulin.
(§2) Cell viability assays. Cell lines were seeded in a 96 well plate (5000 cells per well). After overnight incubation, cells were treated with AGX51 and incubated for 24 hours then MTT reagent (5 mg/mL) was added per well and the cells were incubated for four hours. Following incubation, media was aspirated and 200 μL DMSO was added per well. Absorbance was then measured at 570 nm using a plate reader (Synergy 2, BioTek). Cell growth profiles were determined by seeding 38,000 cells in a 24-well plate, in triplicate for each time point, and counting the cells on days 1, 3 and 5 after seeding, using trypan blue exclusion of dead cells.
Cell cycle analysis. […] For cell cycle analysis cells were centrifuged 1000 rpm for 5 minutes, washed with 1×PBS and then resuspended in 0.5 mL PI/RNase staining buffer (550825, BD Biosciences), incubated for 15 minutes at room temperature and analyzed by flow cytometry (LSR II).

TFK-1 = experiment: Cholangiocarcinoma cell viability, TFK-1; format: cell-based
Experimental: as §2
(§3) The effects of AGX51 and AGX-A on cholangiocarcinoma cell viability were assessed for the six different cholangiocarcinoma cell lines. The measured IC50 values (in μM) from these studies are provided in Table 2 below, along with the ratio of the AGX51 IC50 to the AGX-A IC50 to aid in comparison.

SNU-1079 = experiment: Cholangiocarcinoma cell viability, SNU-1079; format: cell-based
Experimental: as §2, §3

SNU-1196 = experiment: Cholangiocarcinoma cell viability, SNU-1196; format: cell-based
Experimental: as §2, §3

EGI-1 = experiment: Cholangiocarcinoma cell viability, EGI-1; format: cell-based
Experimental: as §2, §3

WITT = experiment: Cholangiocarcinoma cell viability, WITT; format: cell-based
Experimental: as §2, §3

Id proteins = experiment: Western blot for Id1 in HCT116 and 4T1 cells (FIGS. 7C-7D); format: cell-based; conditions: 24 hours
Experimental: The IC50 is indicated. […] The IC50 is indicated. […] Laser-induced choroidal neovascularization (NV) was induced in mice and they were treated by intravitreal injection with DMSO, 1 or 5 μg AGX-A, or 1 or 5 μg AGX51. On day 14 the animals were euthanized and area of CNV was measured (** indicates p<0.01, *** indicates p<0.0001 by ANOVA, error bars show SEM).
as §1

Row | Compound | alteration of Id1 secondary structure (CD spectra) (Id1; 0, 10, 20 and 50 μM) | Kd (Id1; implied from saturation of CD changes, read-out: concentration at which CD changes saturated / range of dissociation constant) [µM] | Cyclin D1 levels (HCT116 cells; 0-48 hours) | cell cycle (HCT116 cells; 4-24 hours) | cell viability (HCT116 cells; 24 hours) | IC50 (TFK-1; TFK-1) [µM] | IC50 (SNU-1079) [µM] | IC50 (SNU-1196) [µM] | IC50 (EGI-1; Homo sapiens) [µM] | IC50 (WITT) [µM] | relative activity in CD assay with Id1 (Id1; comparison between compounds) | Id protein levels in cells, concentration needed relative to AGX51 (Id proteins) | dose-dependent effect on TFK1 cell viability vs AGX51 (TFK-1; 24 hour period, FIG. 23) | (AGX51 IC50)/(AGX-A IC50) (TFK-1; TFK-1) | (AGX51 IC50)/(AGX-A IC50) (SNU-1079) | (AGX51 IC50)/(AGX-A IC50) (SNU-1196) | (AGX51 IC50)/(AGX-A IC50) (EGI-1) | IC50 (EGI-1) [µM] | (AGX51 IC50)/(AGX-A IC50) (WITT)
1 | CCC(=O)N(CCC(c1ccc2c(c1)OCO2)c1ccccc1OC)Cc1ccccc1 (racemic) [AGX51, N-(3-(benzo[d][1,3]dioxol-5-yl)-3-(2-methoxyphenyl)propyl)-N-benzylpropionamide] | significant alteration in the secondary structure of Id1 | ~20 | reduction in Cyclin D1 levels | G0/G1 growth arrest | reduced cell viability | 15.7 | 23.1 | 28.8 | 15.7 | 33.2 | – | – | – | – | – | – | – | – | –
2 | COc1ccccc1C(CCNCc1ccccc1)c1ccc(OC(C)C)cc1 (centres unmarked) [AGX-A, N-benzyl-3-(4-isopropoxyphenyl)-3-(2-methoxyphenyl)propan-1-anine] | – | – | – | – | – | 11.8 | 5.84 | 14.8 | – | 5.32 | exhibiting greater activity than AGX51; also recorded: worked at lower concentrations than AGX51 | reduced Id protein levels at lower concentrations than AGX51; also recorded: degraded Id proteins in cells at lower concentrations than AGX51 | superior anti-cancer potency | 1.33 | 3.95 | 1.94 | 3.49 | 4.49 | 6.25
